Measurements taken from the NIST ThermoML archive (doi:10.1021/je800110r).
Numbers after ± are expanded uncertainties.

Details: 303.16 K, Liquid, Vibrating tube method

CCCCCCCCCC [decane]
mass density (20929 kPa): 738 ± 2 kg/m3
mass density (20946 kPa): 738.2 ± 2 kg/m3
mass density (20968 kPa): 738.1 ± 2 kg/m3
mass density (20994 kPa): 738 ± 2 kg/m3
mass density (21014 kPa): 738.1 ± 2 kg/m3
mass density (21034 kPa): 738.1 ± 2 kg/m3
mass density (21060 kPa): 738.2 ± 2 kg/m3
mass density (21084 kPa): 738.1 ± 2 kg/m3
mass density (21107 kPa): 738.2 ± 2 kg/m3
mass density (21124 kPa): 738.2 ± 2 kg/m3
mass density (21151 kPa): 738.1 ± 2 kg/m3
mass density (21174 kPa): 738.2 ± 2 kg/m3
mass density (21191 kPa): 738.2 ± 2 kg/m3
mass density (21209 kPa): 738.2 ± 2 kg/m3
mass density (21226 kPa): 738.3 ± 2 kg/m3
mass density (21243 kPa): 738.2 ± 2 kg/m3
mass density (21267 kPa): 738.4 ± 2 kg/m3
mass density (21293 kPa): 738.3 ± 2 kg/m3
mass density (21314 kPa): 738.3 ± 2 kg/m3
mass density (21341 kPa): 738.3 ± 2 kg/m3
mass density (21358 kPa): 738.4 ± 2 kg/m3
mass density (21382 kPa): 738.3 ± 2 kg/m3
mass density (21403 kPa): 738.3 ± 2 kg/m3
mass density (21424 kPa): 738.5 ± 2 kg/m3
mass density (21448 kPa): 738.4 ± 2 kg/m3
mass density (21469 kPa): 738.5 ± 2 kg/m3
mass density (21490 kPa): 738.4 ± 2 kg/m3
mass density (21514 kPa): 738.4 ± 2 kg/m3
mass density (21538 kPa): 738.4 ± 2 kg/m3
mass density (21560 kPa): 738.6 ± 2 kg/m3
mass density (21579 kPa): 738.5 ± 2 kg/m3
mass density (21600 kPa): 738.5 ± 2 kg/m3
mass density (21622 kPa): 738.5 ± 2 kg/m3
mass density (21641 kPa): 738.5 ± 2 kg/m3
mass density (21662 kPa): 738.6 ± 2 kg/m3
mass density (21686 kPa): 738.6 ± 2 kg/m3
mass density (21708 kPa): 738.7 ± 2 kg/m3
mass density (21730 kPa): 738.6 ± 2 kg/m3
mass density (21745 kPa): 738.7 ± 2 kg/m3
mass density (21779 kPa): 738.7 ± 2 kg/m3
mass density (21805 kPa): 738.6 ± 2 kg/m3
mass density (21827 kPa): 738.7 ± 2 kg/m3
mass density (21847 kPa): 738.7 ± 2 kg/m3
mass density (21869 kPa): 738.6 ± 2 kg/m3
mass density (21891 kPa): 738.7 ± 2 kg/m3
mass density (21916 kPa): 738.7 ± 2 kg/m3
mass density (21938 kPa): 738.8 ± 2 kg/m3
mass density (21962 kPa): 738.8 ± 2 kg/m3
mass density (21987 kPa): 738.7 ± 2 kg/m3
mass density (22006 kPa): 738.8 ± 2 kg/m3
mass density (22029 kPa): 738.9 ± 2 kg/m3
mass density (22057 kPa): 738.8 ± 2 kg/m3
mass density (22086 kPa): 738.8 ± 2 kg/m3
mass density (22108 kPa): 738.7 ± 2 kg/m3
mass density (22127 kPa): 738.9 ± 2 kg/m3
mass density (22153 kPa): 738.8 ± 2 kg/m3
mass density (22178 kPa): 738.9 ± 2 kg/m3
mass density (22201 kPa): 738.8 ± 2 kg/m3
mass density (22224 kPa): 739 ± 2 kg/m3
mass density (22246 kPa): 738.9 ± 2 kg/m3
mass density (22269 kPa): 738.9 ± 2 kg/m3
mass density (22291 kPa): 739.1 ± 2 kg/m3
mass density (22314 kPa): 739 ± 2 kg/m3
mass density (22333 kPa): 738.9 ± 2 kg/m3
mass density (22360 kPa): 739 ± 2 kg/m3
mass density (22380 kPa): 739 ± 2 kg/m3
mass density (22410 kPa): 739 ± 2 kg/m3
mass density (22436 kPa): 739 ± 2 kg/m3
mass density (22463 kPa): 739.1 ± 2 kg/m3
mass density (22489 kPa): 739.1 ± 2 kg/m3
mass density (22516 kPa): 739 ± 2 kg/m3
mass density (22542 kPa): 739.1 ± 2 kg/m3
mass density (22565 kPa): 739.1 ± 2 kg/m3
mass density (22589 kPa): 739.2 ± 2 kg/m3
mass density (22619 kPa): 739.2 ± 2 kg/m3
mass density (22647 kPa): 739.2 ± 2 kg/m3
mass density (22666 kPa): 739.2 ± 2 kg/m3
mass density (22696 kPa): 739.3 ± 2 kg/m3
mass density (22723 kPa): 739.2 ± 2 kg/m3
mass density (22750 kPa): 739.3 ± 2 kg/m3
mass density (22773 kPa): 739.3 ± 2 kg/m3
mass density (22801 kPa): 739.4 ± 2 kg/m3
mass density (22825 kPa): 739.3 ± 2 kg/m3
mass density (22846 kPa): 739.3 ± 2 kg/m3
mass density (22870 kPa): 739.4 ± 2 kg/m3
mass density (22897 kPa): 739.3 ± 2 kg/m3
mass density (22918 kPa): 739.3 ± 2 kg/m3
mass density (22950 kPa): 739.5 ± 2 kg/m3
mass density (22971 kPa): 739.4 ± 2 kg/m3
mass density (22996 kPa): 739.5 ± 2 kg/m3
mass density (23013 kPa): 739.5 ± 2 kg/m3
mass density (23041 kPa): 739.4 ± 2 kg/m3
mass density (23062 kPa): 739.5 ± 2 kg/m3
mass density (23097 kPa): 739.5 ± 2 kg/m3
mass density (23124 kPa): 739.5 ± 2 kg/m3
mass density (23149 kPa): 739.6 ± 2 kg/m3
mass density (23174 kPa): 739.6 ± 2 kg/m3
mass density (23202 kPa): 739.6 ± 2 kg/m3
mass density (23224 kPa): 739.6 ± 2 kg/m3
mass density (23257 kPa): 739.7 ± 2 kg/m3
mass density (23285 kPa): 739.6 ± 2 kg/m3
mass density (23310 kPa): 739.6 ± 2 kg/m3
mass density (23339 kPa): 739.7 ± 2 kg/m3
mass density (23360 kPa): 739.7 ± 2 kg/m3
mass density (23385 kPa): 739.6 ± 2 kg/m3
mass density (23411 kPa): 739.7 ± 2 kg/m3
mass density (23437 kPa): 739.8 ± 2 kg/m3
mass density (23466 kPa): 739.7 ± 2 kg/m3
mass density (23495 kPa): 739.8 ± 2 kg/m3
mass density (23526 kPa): 739.7 ± 2 kg/m3
mass density (23549 kPa): 739.7 ± 2 kg/m3
mass density (23575 kPa): 739.9 ± 2 kg/m3
mass density (23600 kPa): 739.8 ± 2 kg/m3
mass density (23630 kPa): 739.9 ± 2 kg/m3
mass density (23652 kPa): 739.9 ± 2 kg/m3
mass density (23682 kPa): 739.9 ± 2 kg/m3
mass density (23705 kPa): 739.9 ± 2 kg/m3
mass density (23735 kPa): 739.9 ± 2 kg/m3
mass density (23761 kPa): 740 ± 2 kg/m3
mass density (23784 kPa): 739.9 ± 2 kg/m3
mass density (23813 kPa): 739.9 ± 2 kg/m3
mass density (23845 kPa): 740.1 ± 2 kg/m3
mass density (23872 kPa): 740 ± 2 kg/m3
mass density (23902 kPa): 740.1 ± 2 kg/m3
mass density (23933 kPa): 740.1 ± 2 kg/m3
mass density (23968 kPa): 740.1 ± 2 kg/m3
mass density (23991 kPa): 740.1 ± 2 kg/m3
mass density (24021 kPa): 740.2 ± 2 kg/m3
mass density (24048 kPa): 740.2 ± 2 kg/m3
mass density (24083 kPa): 740.1 ± 2 kg/m3
mass density (24102 kPa): 740.1 ± 2 kg/m3
mass density (24133 kPa): 740.2 ± 2 kg/m3
mass density (24165 kPa): 740.2 ± 2 kg/m3
mass density (24200 kPa): 740.3 ± 2 kg/m3
mass density (24235 kPa): 740.3 ± 2 kg/m3
mass density (24255 kPa): 740.2 ± 2 kg/m3
mass density (24282 kPa): 740.4 ± 2 kg/m3
